Data as given in BindingDB's records for doi:10.1021/cb300729y (University of Dundee, 2013).
Values belong to the molecule of their own block, whether it stands above or below them.

Experiments:
[1] = molecular target: Proto-oncogene tyrosine-protein kinase Src (Gallus gallus, UniProt P00523); experiment: Kinase Assay
Experimental: (§1) Selected compounds were screened against a panel of mammalian kinases. Compounds were supplied in DMSO and screened in duplicates at 100 uM concentration using a radioactive (33P-ATP) filter-binding-assay.

[2] = molecular target: Casein kinase II subunit alpha (Homo sapiens, UniProt P68400); experiment: Kinase Assay
Sequence of Casein kinase II subunit alpha (P68400 whole entry): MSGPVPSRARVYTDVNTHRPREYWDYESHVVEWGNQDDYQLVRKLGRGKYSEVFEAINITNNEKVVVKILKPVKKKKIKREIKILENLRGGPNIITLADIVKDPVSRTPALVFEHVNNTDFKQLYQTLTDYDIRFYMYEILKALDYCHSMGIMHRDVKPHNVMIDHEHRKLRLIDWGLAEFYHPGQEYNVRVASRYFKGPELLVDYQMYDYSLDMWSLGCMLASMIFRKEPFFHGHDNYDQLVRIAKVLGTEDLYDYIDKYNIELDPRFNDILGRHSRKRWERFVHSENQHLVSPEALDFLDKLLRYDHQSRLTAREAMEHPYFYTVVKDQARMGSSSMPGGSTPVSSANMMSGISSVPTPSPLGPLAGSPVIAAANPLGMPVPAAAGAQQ
Experimental: as §1

[3] = molecular target: Ribosomal protein S6 kinase alpha-3 (Homo sapiens, UniProt P51812); experiment: Kinase Assay
Sequence of Ribosomal protein S6 kinase alpha-3 (P51812 whole entry): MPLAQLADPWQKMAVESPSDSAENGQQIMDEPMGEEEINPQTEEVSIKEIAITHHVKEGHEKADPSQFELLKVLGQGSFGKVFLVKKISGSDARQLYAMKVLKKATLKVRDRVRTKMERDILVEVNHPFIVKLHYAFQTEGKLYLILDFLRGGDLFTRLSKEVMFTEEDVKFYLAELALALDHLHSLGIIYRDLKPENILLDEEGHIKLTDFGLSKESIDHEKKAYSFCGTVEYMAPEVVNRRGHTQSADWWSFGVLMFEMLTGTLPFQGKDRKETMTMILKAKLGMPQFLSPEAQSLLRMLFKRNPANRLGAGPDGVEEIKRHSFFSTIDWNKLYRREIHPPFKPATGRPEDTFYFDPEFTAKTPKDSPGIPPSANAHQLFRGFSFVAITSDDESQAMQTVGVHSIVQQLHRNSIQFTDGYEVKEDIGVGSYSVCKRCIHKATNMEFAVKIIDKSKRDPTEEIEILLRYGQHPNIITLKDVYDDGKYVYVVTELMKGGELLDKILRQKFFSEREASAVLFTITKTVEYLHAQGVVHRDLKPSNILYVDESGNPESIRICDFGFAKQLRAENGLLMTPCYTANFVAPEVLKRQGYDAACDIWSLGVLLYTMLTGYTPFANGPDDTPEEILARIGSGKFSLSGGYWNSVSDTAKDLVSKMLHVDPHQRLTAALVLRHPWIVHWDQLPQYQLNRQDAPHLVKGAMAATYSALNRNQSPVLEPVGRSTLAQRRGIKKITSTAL
Experimental: as §1

SRSF protein kinase 1 = SRSF protein kinase 1 (Homo sapiens, UniProt Q96SB4); experiment: Kinase Assay
Experimental: as §1

[4] = molecular target: MAP kinase-activated protein kinase 3 (Homo sapiens, UniProt Q16644); experiment: Kinase Assay
Experimental: as §1

[5] = molecular target: Germinal center kinase MAP4K2 (Homo sapiens); experiment: Selected compounds were screened against a panel of mammalian kinases. Compounds were supplied in DMSO and screened in duplicates at 100 uM concentration using a radioactive (33P-ATP) filter-binding-assay.
[6] = molecular target: Cyclin-dependent kinase 2 (Homo sapiens, UniProt P24941); experiment: Kinase Assay
Experimental: as §1

[7] = molecular target: Insulin-like growth factor 1 receptor (Homo sapiens, UniProt P08069); experiment: Kinase Assay
Sequence of Insulin-like growth factor 1 receptor (P08069 31-736 limits assumed): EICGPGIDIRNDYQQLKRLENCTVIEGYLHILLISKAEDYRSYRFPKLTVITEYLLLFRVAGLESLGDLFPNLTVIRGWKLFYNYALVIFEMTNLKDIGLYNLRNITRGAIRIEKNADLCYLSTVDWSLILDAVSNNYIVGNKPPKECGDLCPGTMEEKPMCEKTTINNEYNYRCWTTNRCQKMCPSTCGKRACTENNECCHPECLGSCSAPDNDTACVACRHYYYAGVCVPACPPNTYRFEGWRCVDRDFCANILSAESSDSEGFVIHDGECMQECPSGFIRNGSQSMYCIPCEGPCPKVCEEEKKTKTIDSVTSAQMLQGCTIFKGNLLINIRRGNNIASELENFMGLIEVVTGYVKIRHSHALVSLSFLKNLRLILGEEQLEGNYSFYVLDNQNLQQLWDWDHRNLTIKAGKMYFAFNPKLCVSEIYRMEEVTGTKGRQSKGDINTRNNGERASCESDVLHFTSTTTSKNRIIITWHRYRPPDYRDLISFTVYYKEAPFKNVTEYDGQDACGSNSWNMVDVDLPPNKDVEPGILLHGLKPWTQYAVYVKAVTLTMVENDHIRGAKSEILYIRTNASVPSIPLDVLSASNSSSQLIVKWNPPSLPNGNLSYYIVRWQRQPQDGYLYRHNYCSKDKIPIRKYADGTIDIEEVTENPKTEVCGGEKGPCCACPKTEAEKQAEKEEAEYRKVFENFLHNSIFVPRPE
Sequence of Insulin-like growth factor 1 receptor (P08069 741-1367 limits assumed): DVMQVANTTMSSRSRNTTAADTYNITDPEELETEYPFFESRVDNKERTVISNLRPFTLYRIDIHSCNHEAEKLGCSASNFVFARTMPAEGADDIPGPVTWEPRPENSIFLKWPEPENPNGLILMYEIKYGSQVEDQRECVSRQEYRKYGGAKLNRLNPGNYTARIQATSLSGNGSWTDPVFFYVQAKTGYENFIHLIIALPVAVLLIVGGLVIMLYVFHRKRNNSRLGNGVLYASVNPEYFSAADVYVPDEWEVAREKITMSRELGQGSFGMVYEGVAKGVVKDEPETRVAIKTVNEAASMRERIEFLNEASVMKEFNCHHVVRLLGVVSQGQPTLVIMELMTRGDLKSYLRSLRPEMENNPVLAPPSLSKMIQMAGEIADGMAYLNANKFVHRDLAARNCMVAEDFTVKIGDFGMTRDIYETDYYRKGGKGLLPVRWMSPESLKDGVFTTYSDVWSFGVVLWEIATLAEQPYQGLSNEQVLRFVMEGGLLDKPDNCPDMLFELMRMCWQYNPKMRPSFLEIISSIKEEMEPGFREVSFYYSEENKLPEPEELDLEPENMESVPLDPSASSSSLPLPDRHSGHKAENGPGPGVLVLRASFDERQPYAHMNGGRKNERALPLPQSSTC
Experimental: as §1

Aurora kinase A = molecular target: T1, Aurora kinase A (Homo sapiens, UniProt O14965); experiment: Kinase Assay
T1 sequence (O14965 whole entry): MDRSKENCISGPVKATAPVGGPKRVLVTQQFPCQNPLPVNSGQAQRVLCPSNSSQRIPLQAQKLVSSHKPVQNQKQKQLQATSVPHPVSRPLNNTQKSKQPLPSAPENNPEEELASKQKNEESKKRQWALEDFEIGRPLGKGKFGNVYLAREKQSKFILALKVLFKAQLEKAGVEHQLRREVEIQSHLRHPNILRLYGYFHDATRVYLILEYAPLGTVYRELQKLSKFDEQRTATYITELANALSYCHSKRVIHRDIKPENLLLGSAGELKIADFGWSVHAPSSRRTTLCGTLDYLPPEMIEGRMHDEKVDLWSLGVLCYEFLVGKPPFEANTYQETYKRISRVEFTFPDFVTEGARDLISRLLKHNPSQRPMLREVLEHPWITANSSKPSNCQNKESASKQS
Experimental: as §1

[8] = molecular target: T2, Mitogen-activated protein kinase kinase kinase 7 (Homo sapiens, UniProt O43318); experiment: Kinase Assay
T2 sequence (O43318 whole entry): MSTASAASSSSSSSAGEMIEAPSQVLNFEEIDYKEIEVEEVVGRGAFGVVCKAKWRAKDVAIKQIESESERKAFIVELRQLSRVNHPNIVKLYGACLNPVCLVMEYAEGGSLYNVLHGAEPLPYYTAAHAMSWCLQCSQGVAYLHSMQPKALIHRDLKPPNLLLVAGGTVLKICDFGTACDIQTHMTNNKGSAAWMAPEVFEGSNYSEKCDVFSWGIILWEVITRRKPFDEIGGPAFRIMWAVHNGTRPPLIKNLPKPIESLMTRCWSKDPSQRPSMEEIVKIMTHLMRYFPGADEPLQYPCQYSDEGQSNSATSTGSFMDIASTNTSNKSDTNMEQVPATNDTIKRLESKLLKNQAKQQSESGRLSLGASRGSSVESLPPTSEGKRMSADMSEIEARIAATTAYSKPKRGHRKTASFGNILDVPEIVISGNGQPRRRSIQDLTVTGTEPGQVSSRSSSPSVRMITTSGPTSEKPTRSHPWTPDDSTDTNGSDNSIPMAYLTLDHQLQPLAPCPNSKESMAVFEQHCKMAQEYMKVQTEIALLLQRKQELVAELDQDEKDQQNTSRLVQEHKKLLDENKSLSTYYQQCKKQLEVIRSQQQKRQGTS
Experimental: as §1

[9] = molecular target: Fibroblast growth factor receptor 1 (Homo sapiens, UniProt P11362); experiment: Kinase Assay
Sequence of Fibroblast growth factor receptor 1 (P11362 whole entry): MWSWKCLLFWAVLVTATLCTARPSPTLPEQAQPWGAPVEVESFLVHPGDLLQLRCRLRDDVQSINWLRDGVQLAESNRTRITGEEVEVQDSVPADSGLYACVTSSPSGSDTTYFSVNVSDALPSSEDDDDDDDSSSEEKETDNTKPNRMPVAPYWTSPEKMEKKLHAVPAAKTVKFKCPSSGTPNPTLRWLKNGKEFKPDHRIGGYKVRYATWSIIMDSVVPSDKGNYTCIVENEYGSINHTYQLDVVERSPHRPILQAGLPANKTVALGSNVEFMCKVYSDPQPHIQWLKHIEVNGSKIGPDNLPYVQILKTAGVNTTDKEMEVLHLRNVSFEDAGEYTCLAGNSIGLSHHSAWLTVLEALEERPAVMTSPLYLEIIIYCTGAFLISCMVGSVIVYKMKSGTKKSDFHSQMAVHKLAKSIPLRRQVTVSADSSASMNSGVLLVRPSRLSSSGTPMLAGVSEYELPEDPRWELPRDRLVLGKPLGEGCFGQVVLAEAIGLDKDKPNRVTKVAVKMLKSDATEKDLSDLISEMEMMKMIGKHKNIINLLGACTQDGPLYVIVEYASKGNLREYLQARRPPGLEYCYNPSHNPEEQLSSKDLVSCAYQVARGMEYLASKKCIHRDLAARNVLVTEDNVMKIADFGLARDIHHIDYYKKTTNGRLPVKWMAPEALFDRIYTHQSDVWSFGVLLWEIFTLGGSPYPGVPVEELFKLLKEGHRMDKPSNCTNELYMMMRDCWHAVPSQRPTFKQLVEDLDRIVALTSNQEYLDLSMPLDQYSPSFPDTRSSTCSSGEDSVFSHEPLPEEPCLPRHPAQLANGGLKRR
Experimental: as §1

[10] = molecular target: Dual specificity protein kinase CLK2 (Homo sapiens, UniProt P49760); experiment: Kinase Assay
Experimental: as §1

[11] = molecular target: Serine/threonine-protein kinase Chk2 (Homo sapiens, UniProt O96017); experiment: Kinase Assay
Sequence of Serine/threonine-protein kinase Chk2 (O96017 whole entry): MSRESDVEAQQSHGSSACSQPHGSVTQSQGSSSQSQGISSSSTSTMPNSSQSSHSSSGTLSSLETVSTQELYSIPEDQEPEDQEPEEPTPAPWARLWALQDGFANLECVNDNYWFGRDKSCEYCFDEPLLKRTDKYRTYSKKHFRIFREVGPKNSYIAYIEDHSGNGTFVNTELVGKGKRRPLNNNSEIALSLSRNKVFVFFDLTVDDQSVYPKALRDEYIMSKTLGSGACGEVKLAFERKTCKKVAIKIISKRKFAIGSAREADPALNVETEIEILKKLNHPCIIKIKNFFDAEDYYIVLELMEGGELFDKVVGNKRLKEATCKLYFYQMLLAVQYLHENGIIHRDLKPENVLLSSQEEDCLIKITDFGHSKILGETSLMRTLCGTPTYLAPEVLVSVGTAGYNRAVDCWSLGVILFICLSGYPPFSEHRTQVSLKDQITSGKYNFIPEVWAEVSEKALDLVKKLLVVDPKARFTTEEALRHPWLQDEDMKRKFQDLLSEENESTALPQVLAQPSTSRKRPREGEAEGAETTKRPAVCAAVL
Experimental: as §1

[12] = molecular target: Vascular endothelial growth factor receptor 2 (Homo sapiens, UniProt P35968); experiment: Kinase Assay
Experimental: as §1

[13] = molecular target: Tyrosine-protein kinase Yes (Homo sapiens, UniProt P07947); experiment: Kinase Assay
Sequence of Tyrosine-protein kinase Yes (P07947 whole entry): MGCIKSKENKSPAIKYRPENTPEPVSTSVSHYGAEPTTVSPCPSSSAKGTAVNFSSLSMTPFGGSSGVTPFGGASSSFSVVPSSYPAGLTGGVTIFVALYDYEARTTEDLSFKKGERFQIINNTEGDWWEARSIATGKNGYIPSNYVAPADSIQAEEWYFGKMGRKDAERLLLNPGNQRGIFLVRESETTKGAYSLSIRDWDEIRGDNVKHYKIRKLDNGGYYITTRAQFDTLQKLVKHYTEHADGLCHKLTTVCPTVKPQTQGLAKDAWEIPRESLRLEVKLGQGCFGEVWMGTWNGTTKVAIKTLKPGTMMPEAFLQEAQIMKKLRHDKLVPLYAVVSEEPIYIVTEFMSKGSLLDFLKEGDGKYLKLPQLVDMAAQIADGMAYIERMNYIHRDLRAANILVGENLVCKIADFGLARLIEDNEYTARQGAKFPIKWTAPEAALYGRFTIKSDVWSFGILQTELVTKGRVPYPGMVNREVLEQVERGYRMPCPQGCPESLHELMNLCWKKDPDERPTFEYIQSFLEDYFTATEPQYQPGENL
Experimental: as §1

[14] = molecular target: T3, Serine/threonine-protein kinase Sgk1 (Homo sapiens, UniProt O00141); experiment: Kinase Assay
T3 sequence (O00141 whole entry): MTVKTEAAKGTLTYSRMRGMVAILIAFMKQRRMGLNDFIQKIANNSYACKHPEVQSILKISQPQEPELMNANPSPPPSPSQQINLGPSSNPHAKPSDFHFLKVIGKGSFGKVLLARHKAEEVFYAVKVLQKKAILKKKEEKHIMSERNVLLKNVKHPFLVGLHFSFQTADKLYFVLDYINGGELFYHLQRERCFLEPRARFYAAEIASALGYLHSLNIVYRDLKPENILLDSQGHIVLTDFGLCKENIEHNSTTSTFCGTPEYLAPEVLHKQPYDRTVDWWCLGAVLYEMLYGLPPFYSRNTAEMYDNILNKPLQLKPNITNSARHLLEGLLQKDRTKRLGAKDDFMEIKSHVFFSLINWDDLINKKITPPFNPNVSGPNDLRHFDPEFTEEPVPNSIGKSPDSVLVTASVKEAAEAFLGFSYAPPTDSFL
Experimental: as §1

[15] = molecular target: Glycogen synthase kinase-3 beta (Homo sapiens, UniProt P49841); experiment: Kinase Assay
Experimental: as §1

Ephrin type-B receptor 3 = molecular target: T4, Ephrin type-B receptor 3 (Homo sapiens, UniProt P54753); experiment: Kinase Assay
T4 sequence (P54753 whole entry): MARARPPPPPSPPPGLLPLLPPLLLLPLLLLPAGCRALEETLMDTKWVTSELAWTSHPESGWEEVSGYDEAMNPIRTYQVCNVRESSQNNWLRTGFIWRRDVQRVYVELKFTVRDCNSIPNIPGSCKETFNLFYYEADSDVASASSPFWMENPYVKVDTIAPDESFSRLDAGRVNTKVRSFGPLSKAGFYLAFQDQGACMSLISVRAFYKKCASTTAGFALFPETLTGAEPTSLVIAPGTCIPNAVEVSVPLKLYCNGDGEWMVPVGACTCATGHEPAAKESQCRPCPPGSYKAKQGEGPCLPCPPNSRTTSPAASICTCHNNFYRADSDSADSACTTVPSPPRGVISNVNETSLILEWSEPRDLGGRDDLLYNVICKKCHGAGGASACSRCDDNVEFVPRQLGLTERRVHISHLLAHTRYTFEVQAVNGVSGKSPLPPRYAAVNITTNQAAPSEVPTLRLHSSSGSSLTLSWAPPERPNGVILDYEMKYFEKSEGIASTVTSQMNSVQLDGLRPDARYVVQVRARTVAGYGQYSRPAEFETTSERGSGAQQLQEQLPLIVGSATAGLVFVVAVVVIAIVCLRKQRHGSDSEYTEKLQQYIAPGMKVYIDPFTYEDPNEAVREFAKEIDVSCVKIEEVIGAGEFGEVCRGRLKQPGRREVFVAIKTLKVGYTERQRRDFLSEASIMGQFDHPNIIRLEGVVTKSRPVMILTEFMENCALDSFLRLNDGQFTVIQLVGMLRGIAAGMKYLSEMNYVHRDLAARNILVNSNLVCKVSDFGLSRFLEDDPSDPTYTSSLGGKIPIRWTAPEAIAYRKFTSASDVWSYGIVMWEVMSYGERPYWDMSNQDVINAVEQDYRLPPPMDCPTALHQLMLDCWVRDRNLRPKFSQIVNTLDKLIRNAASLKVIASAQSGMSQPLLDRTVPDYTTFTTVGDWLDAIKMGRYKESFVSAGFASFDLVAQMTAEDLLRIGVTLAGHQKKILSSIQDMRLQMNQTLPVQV
Experimental: as §1

[16] = molecular target: Serine/threonine-protein kinase pim-1 (Homo sapiens, UniProt P11309); experiment: Kinase Assay
Sequence of Serine/threonine-protein kinase pim-1 (P11309 whole entry): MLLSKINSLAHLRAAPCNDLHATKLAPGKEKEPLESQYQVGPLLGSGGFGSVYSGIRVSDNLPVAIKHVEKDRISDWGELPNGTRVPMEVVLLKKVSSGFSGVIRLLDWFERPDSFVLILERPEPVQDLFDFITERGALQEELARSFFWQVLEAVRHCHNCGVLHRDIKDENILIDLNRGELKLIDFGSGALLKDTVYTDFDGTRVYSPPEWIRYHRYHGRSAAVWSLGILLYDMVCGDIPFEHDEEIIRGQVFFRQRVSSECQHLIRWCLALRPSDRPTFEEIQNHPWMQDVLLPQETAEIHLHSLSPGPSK
Experimental: as §1

[17] = molecular target: Serine/threonine-protein kinase pim-3 (Homo sapiens, UniProt Q86V86); experiment: Kinase Assay
Experimental: as §1

IC50 [1]: 97 µM | IC50 [2]: 18 µM | IC50 [3]: 196 µM | IC50 (SRSF protein kinase 1): 114 µM | IC50 [4]: 21 µM
Structure (SMILES): CC1CN(c2nc3ccccn3c(=O)c2N)CC(C)O1 (stereo unspecified) [Kinase inhibitor, A1]

IC50 [5]: 4 µM | IC50 [6]: 26 µM | IC50 [2]: 131 µM | IC50 [7]: 47 µM | IC50 (Aurora kinase A): 188 µM | IC50 [8]: 24 µM | IC50 [9]: 252 µM | IC50 [10]: 25 µM
Structure (SMILES): Nc1cnc2c(-c3c(F)cccc3F)cccn2c1=O [Kinase inhibitor, A2]

IC50 [5]: 6 µM | IC50 [11]: 17 µM | IC50 [1]: 20 µM | IC50 [7]: 25 µM | IC50 [12]: 39 µM | IC50 [8]: 11 µM | IC50 [13]: 21 µM
Structure (SMILES): Nc1nc2cnc(-c3ccccc3)cn2n1 [Kinase inhibitor, B1]

IC50 [14]: 110 µM | IC50 [15]: 25 µM
Structure (SMILES): COc1ccc(-c2cc3c(=O)[nH]cnc3s2)cc1OC [Kinase inhibitor, C2]

IC50 (Ephrin type-B receptor 3): 158 µM | IC50 [9]: 469 µM
Structure (SMILES): CC(C)(C)Nc1c(C2CC2)[nH]c2ncnn12 [Kinase inhibitor, D1]

IC50 [16]: 22 µM | IC50 [17]: 14 µM
Structure (SMILES): O=c1cc(-c2ccccc2F)nc2[nH]ccn12 [Kinase inhibitor, F3]
